Results taken from patent US20080171710A1, “The Redox/Fyn/c-Cbl Pathway” (priority 2007, published 2008).
Read-outs that look alike come from different tables or passages of the source.

Legend:
PDGFRα [1] = format: cell-based, rat; settings: for effect on MeHg-induced reductions in levels of PDGFRα: together with MeHg; for effect on Pb- and paraquat-induced reductions in levels of PDGFRα: together with Pb (1 μM) or paraquat (5 μM); for absolute levels of PDGFRα: O-2A/OPCs in PDGF, 24 hr exposure
Fyn [2] = target: T1, Fyn (Rattus norvegicus, UniProt Q62844); format: cell-based; settings: for effect on MeHg-induced Fyn activation: added 1 h before MeHg
T1 construct: 250 μg of total cell lysates were immunoprecipitated with anti-Fyn antibody; endogenous in cells; host or cells: primary rat O-2A/OPCs
Description: Fyn kinase activity was quantified using the Universal Tyrosine Kinase Assay Kit (Takara, Madison, Wis., United States). O-2A/OPCs exposed to different treatments were solubilized with an equal volume of the extraction buffer provided with the kit for 15 min, and the resulting lysates were centrifuged at 13,000×g for 15 min at 4° C.; 250 μg of total cell lysates were immunoprecipitated with anti-Fyn antibody (Santa Cruz Biotechnology). Following immunoprecipitation, Fyn immune complexes were washed four times with extraction buffer, and then Fyn kinase activities of each sample were assayed using the kit according to the manufacturer's instructions.

c-Cbl = format: cell-based, rat; settings: for effect on MeHg-induced c-Cbl phosphorylation: added 1 h before MeHg
Description: For the co-immunoprecipitation assay, anti-c-Cbl monoclonal antibody (BD PharMingen) or anti-PDGFRα polyclonal antibody (Santa Cruz Biotechnology) was added to the pre-cleared cell lysates (250 μg of total protein), and the mixtures were gently rocked for 2 h at 4° C. A total of 30 μl of protein A/G agarose was then added to the mixture followed by rotating at 4° C. overnight. The protein A/G agarose was then spun down and washed thoroughly three times. The precipitates were resolved on an 8% SDS-PAGE gel and then were subjected to Western blot analysis using an anti-p-Tyr (for c-Cbl phosphorylation assay) or ubiquitin (for PDGFR ubiquitylation assay) antibody (Santa Cruz Biotechnology).

O-2A/OPCs [3] = experiment: In vitro BrdU incorporation assay; format: cell-based, rat; settings: with TMX, 2 days
Description: Cell proliferation was assessed by bromodeoxyuridine (BrdU) incorporation and by using the mouse anti-BrdU mAb IgGl (1:100; Sigma) to label dividing cells. Stained cells on cover slips were rinsed two times in 1×PBS, counterstained with 4′6-diamidino-2-phenylindole (DAPI; Molecular Probes, Eugene, Oreg., United States) and mounted on glass slides with Fluoromount (Molecular Probes). Staining against surface proteins was performed on cultures of living cells or on cells fixed with 2% paraformaldehyde. Staining with intracellular antibodies was performed by permeabilizing cells with ice-cold methanol for 4 min or by using 0.5% Triton for 15 mm on 2% parafomaldhyde-fixed cells. Antibody binding was detected with appropriate fluorescent dye-conjugated secondary antibodies at 10 μg/ml (Southern Biotech, Birmingham, Ala., United States) or Alexa Fluor-coupled antibodies at a concentration of 1 μg/ml (Molecular Probes), applied for 20 min. Anti-BrdU monoclonal antibody was obtained from Sigma.

O-2A/OPCs [4] = experiment: Intracellular ROS / redox state measurement; format: cell-based, rat; settings: 1 μM Pb or 5 μM paraquat; dyes dihydro-chloromethyl-rosamine or dihydro-calcein-AM
Description: Cells were plated in 96-well microplates and grown to about 60% continence. […] Cells were then washed once with HBSS and growth medium to remove free probe. Then, fresh growth medium was added and a baseline fluorescence reading was taken prior to treatment. For NAC pre-treatment. […] Fluorescence was measured in a Wallac 1420 Victor2 multilabel counter (PerkinElmer) using excitation and emission wavelengths of 485 nm and 535 nm, respectively, at different time courses as indicated in the figures. Results are presented as the value change from baseline by the formula (Ftexp−Ftbase)/Ftbase normalized with the control group, where Ftexp=fluorescence at any given time during the experiment in a give well and Ftbase=baseline fluorescence of the same well.

Erk1/2 = format: cell-based, rat; settings: for Erk1/2 phosphorylation caused by PDGF: co-exposure 24 hr, TH, BMP4, FGF-2 or NT-3 (10 ng/ml); for NT-3-stimulated Erk1/2 phosphorylation: co-exposure to TH, BMP-4 or FGF-2
Description: (§1) Cells were deprived of PDGF-AA for 5 h before re-exposure to PDGF-AA (10 ng/ml) for 1 h for Western blot or 6 h for luciferase assays of pathway activation. Transient transfection was performed using Fugene6 (Roche, Basel, Switzerland ) transfection solution according to the manufacturer's protocol. For the luciferase assay, cells seeded in 12-well plates were transfected with a reporter plasmid SRE-Luc(firefly) or NF-κB-Luc(firefly) (BD-Clontech, Palo Alto, Calif., United States) and an internal control plasmid pRLSV40-LUC. Analyses of luciferase activity were performed according to the protocol of the Dual Luciferase Assay System (Promega, Madison, Wis., United States), which uses an internal control of Renilla luciferase for quantification, and relative light units were measured using a luminometer.
(§2) Anti-phosphorylated Erk monoclonal, anti-Erk monoclonal, anti-TrkC polyclonal anti-Fyn polyclonal, anti-EGFR polyclonal, anti-c-Met polyclonal, anti-phospho-tyrosine monoclonal, and anti-PDGFRα polyclonal antibodies were obtained from Santa Cruz Biotechnology (Santa Cruz, Calif., United States). Anti-c-Cbl monoclonal antibody was obtained from BD PharMingen (San Diego, Calif., United States). Anti-phosphorylated Akt monoclonal and anti-Akt polyclonal antibodies were obtained from Cell Signaling Technology (Beverly, Mass., United States). Anti-phosphorylated PDGPRα polyclonal antibody was obtained from Biosource (Carlsbad, Calif., United States). The cell culture samples were collected and lysed in RAPI buffer, whereas dissected tissue samples were sonicated in RAPI buffer. Samples were resolved on SDS-PAGE gels and transferred to PVDF membranes (PerkinElmer Life Science. Wellesley, Mass., United States), After being blocked in 5% skim milk in PBS containing 0.1% Tween 20, membranes were incubated with a primary antibody, followed by incubation with an HRP-conjugated secondary antibody (Santa Cruz Biotechnology). Membranes were visualized using Western Blotting Luminol Reagent (Santa Cruz Biotechnology). All analyses of signaling pathway components were conducted in the presence of ligand for the receptor pathway under analysis (either PDGF-AA for PDGFRα, NT-3 or TrkC, HGF for c-Met, or EGF for EGFR).

PDGFRα [5] = experiment: PDGFRα phosphorylation (Western blot, anti-PDGFRα(pY742)); format: cell-based, rat; settings: 30 nM MeHg; 1 μM Pb; 5 μM paraquat
Text: The cells were then collected and lysed for Western blotting. […] Cells were lysed for Western blot analysis using anti-PDGFRα(pY742) antibody. The membranes were de-probed and then re-probed with antibody against total PDGFRα and anti-β-tubulin antibody. […]
as §2

EGFR = format: cell-based, rat; settings: MeHg, Pb or paraquat
Text: as §2

TrkC = format: cell-based, rat; settings: for levels of TrkC: O-2A/OPCs in NT-3, 24 hr exposure
Text: as §2

c-Met = format: cell-based, rat; settings: for c-Met levels: O-2A/OPCs in HGF, 24 hr exposure
Text: as §2

O-2A/OPCs [6] = experiment: Cell death of O-2A/OPCs on exposure; format: cell-based, rat
Description: To generate sufficient numbers of cells for biochemical analysis, cells, were expanded through one to two passages in PDGF+FGF-2 before replating in the presence of PDGF alone. When cells achieved approximately 50% confluence, MeHg, Pb, or paraquat was added to their medium at concentrations indicated. Doses for the toxicants were chosen on the basis of dose-response curves to identify sub-lethal exposure levels, as a reflection of blood and brain toxicant levels of these compounds and, where applicable, on the basis of previous reports. All toxicant concentrations examined were confirmed to cause death of less than 5% of cells over the time course of the experiment.

SRE-luciferase reporter = SRE-luciferase reporter assay; format: cell-based, rat; settings: PDGF plus TH or BMP-4 (10 ng/ml), 24 hr
Description: as §1

Fyn [7] = format: cell-based, rat; settings: exposure to Aβ (5-20 μM)
[8] = added 1 h before Pb or paraquat
[9] = NAC 1 mM, PP1 100 nM or ICI 182,780 200 nM with TMX
[10] = 30 nM MeHg, 1 μM Pb, 5 μM paraquat
[11] = O-2A/OPCs induced to divide by PDGF, 3-4 hr exposure

T1 sequence (Q62844 whole entry): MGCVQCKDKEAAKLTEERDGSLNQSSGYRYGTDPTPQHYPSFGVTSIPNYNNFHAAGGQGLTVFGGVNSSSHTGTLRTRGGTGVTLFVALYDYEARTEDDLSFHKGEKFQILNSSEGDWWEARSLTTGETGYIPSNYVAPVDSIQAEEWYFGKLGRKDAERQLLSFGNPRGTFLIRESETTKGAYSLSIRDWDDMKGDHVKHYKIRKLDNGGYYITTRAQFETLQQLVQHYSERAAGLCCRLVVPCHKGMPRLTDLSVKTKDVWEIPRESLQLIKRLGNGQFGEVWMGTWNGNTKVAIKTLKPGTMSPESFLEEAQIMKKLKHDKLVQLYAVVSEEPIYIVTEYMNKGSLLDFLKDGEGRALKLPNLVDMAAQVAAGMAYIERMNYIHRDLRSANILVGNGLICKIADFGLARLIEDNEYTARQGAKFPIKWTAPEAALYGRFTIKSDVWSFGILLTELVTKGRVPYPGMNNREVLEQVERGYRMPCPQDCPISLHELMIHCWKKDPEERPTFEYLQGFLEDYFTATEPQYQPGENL

## CN(C)CCCn1cc(C2=C(c3c[nH]c4ccccc34)C(=O)NC2=O)c2ccccc21 [BIM-1, bisindoleylmaleimide I]
PDGFRα [1]
  effect on MeHg-induced reductions in levels of PDGFRα: did not protect
  effect on Pb- and paraquat-induced reductions in levels of PDGFRα: did not protect
Fyn [2]
  effect on MeHg-induced Fyn activation: did not prevent
Fyn [2]; [8]
  effect on Pb- and paraquat-induced Fyn activation: did not prevent
c-Cbl
  effect on MeHg-induced c-Cbl phosphorylation: did not prevent
c-Cbl; [8]
  effect on Pb- and paraquat-induced c-Cbl phosphorylation: did not prevent

## C[C@]12CC[C@@H]3c4ccc(O)cc4C[C@@H](CCCCCCCCC[S+]([O-])CCCC(F)(F)C(F)(F)F)[C@H]3[C@@H]1CC[C@@H]2O (some centres unmarked) [ICI 182780]
O-2A/OPCs [3]
  effect on TMX effect on cell proliferation: blocked
PDGFRα [1]; [9]
  effect on TMX-induced reductions in levels of PDGFRα: rescued
Fyn [2]; [9]
  effect on TMX-induced activation of Fyn: prevented
c-Cbl; [9]
  effect on TMX-induced activation of c-Cbl: prevented

## CC(C)(C)n1nc(-c2ccc(Cl)cc2)c2c(N)ncnc21 [PP2]
Fyn [2]
  effect on MeHg-induced Fyn activation: blocked
c-Cbl
  effect on MeHg-induced c-Cbl phosphorylation: blocked

## [Pb] [Pb, lead]
O-2A/OPCs [4]
  cells more oxidized (intracellular redox state): approximately 20%
Erk1/2; 30 nM MeHg 24 h, 1 μM Pb, 5 μM paraquat
  PDGF-induced Erk1/2 phosphorylation after toxicant exposure: reduced levels of Erk1/2 phosphorylation
PDGFRα [5]
  phosphorylation of PDGFRα after toxicant exposure: reduced
PDGFRα [1]; MeHg 30 nM, 1 μM Pb, 5 μM paraquat
  total levels of PDGFRα after toxicant exposure: reduced
EGFR
  levels of EGFR after toxicant exposure: also reduced
TrkC; MeHg, Pb or paraquat
  levels of TrkC after toxicant exposure: neither Pb or paraquat caused a reduction
c-Met; MeHg, Pb or paraquat
  levels of c-Met after toxicant exposure: also reduced
Fyn [2]; [10]
  Fyn activation after toxicant exposure: activation of Fyn
c-Cbl; [10]
  c-Cbl phosphorylation after toxicant exposure: increased phosphorylation of c-Cbl
O-2A/OPCs [6]; MeHg at lower concentrations (not above 50 nM), 1 μM Pb, 5 μM paraquat
  cell death at the concentrations used: did not cause cell death

## N[C@@H](Cc1cc(I)c(Oc2ccc(O)c(I)c2)c(I)c1)C(=O)O [TH, thyroid hormone, reference compound]
SRE-luciferase reporter
  SRE-reporter gene expression: greatly reduces
Erk1/2
  Erk1/2 phosphorylation caused by PDGF: reduce
  NT-3-stimulated Erk1/2 phosphorylation: not affected
PDGFRα [1]
  absolute levels of PDGFRα: reductions

## C[C@@H]1C[C@@H]([C@H](O)CC2CC(=O)NC(=O)C2)C(=O)[C@@H](C)C1 [cycloheximide]
PDGFRα [1]; cycloheximide 1 μg/ml
  levels of PDGFRα on inhibition of protein synthesis: reductions

## O=C1N[C@H](C(=O)O)CS1 [proeysteinc, procysteine]
PDGFRα [1]
  effect on Pb- and paraquat-induced reductions in levels of PDGFRα: protected

## Aβ(1-42): amino acids 1-42 of amyloid beta protein
Erk1/2; exposure to Aβ(1-42)
  Erk1/2 phosphorylation induced by NT-3: had no effect
  PDGF-mediated induction of Erk1/2 phosphorylation: inhibited
PDGFRα [1]; exposure to Aβ
  levels of PDGFRα: reduced
c-Cbl; exposure to Aβ (5-20 μM)
  c-Cbl phosphorylation: phosphorylated
O-2A/OPCs [6]; 5-10 μM Aβ(1-42), 48 hrs
  cell death: little cell death
O-2A/OPCs [6]; O-2A/OPCs
  concentration inducing progenitor cell death: 20 µM
Fyn [7]
  Fyn phosphorylation: phosphorylated

## bone morphogenetic protein-4 [BMP-4]
SRE-luciferase reporter
  SRE-reporter gene expression: greatly reduces
Erk1/2
  Erk1/2 phosphorylation caused by PDGF: reduce
  NT-3-stimulated Erk1/2 phosphorylation: not affected
PDGFRα [1]
  absolute levels of PDGFRα: reductions
TrkC
  levels of TrkC: unaffected
c-Met
  c-Met levels: decreases
Fyn [2]; differentiation inducers TH and BMP
  fyn activation: activated
c-Cbl; [11]
  c-Cbl phosphorylation: increased phosphorylation

## fibroblast growth factor-2 [FGF-2]
Erk1/2
  Erk1/2 phosphorylation caused by PDGF: enhances signaling
  NT-3-stimulated Erk1/2 phosphorylation: not affected
PDGFRα [1]; FGF-2 10 ng/ml and PDGF, 24 hr
  levels of PDGFRα in the presence of actinomycin D: still show increased levels
PDGFRα [1]
  absolute levels of PDGFRα: increase
TrkC
  levels of TrkC: unaffected
c-Met
  c-Met levels: increased
c-Cbl; [11]
  c-Cbl phosphorylation: caused a reduction

B1: neurotrophin-3 (protein, UniProt P20783 139-257, looked up)
Neurotrophin-3: YAEHKSHRGEYSVCDSESLWVTDKSSAIDIRGHQVTVLGEIKTGNSPVKQYFYETRCKEARPVKNGCRGIDDKHWNSQCKTSQTYVRALTSENNKLVGWRWIRIDTSCVCALSRKIGRT
notes: signaling molecule that enhances self-renewal
Erk1/2
  Erk1/2 phosphorylation caused by PDGF: enhances signaling
PDGFRα [1]
  absolute levels of PDGFRα: increase
TrkC
  levels of TrkC: unaffected
c-Met
  c-Met levels: increased
c-Cbl; [11]
  c-Cbl phosphorylation: caused a reduction

B2: scrambled (Scr) RNAi: scrambled negative control for c-Cbl RNAi, SEQ ID NO: 7 and 8 (nucleic acid)
chain 1: TTTAAACCCGGCCCTTTGGTTCAAGAGACCAAAGGGCCGGGTTTAAATTTTTT
chain 2: AATTAAAAAATTTAAACCCGGCCCTTTGGTCTCTTGAACCAAAGGGCCGGGTTTAAAGGCC
PDGFRα [1]
  effect on MeHg-induced reductions in levels of PDGFRα: had no effect
